How the values were obtained:
[1] = molecular target: Met (Homo sapiens, UniProt P08581); assay: Luminex bead sandwich assay of Met autophosphorylation in HT29 cell lysate after HGF activation; details: HT29 cells, 30 μM inhibitor 45 min, HGF 100 ng/ml
Description: Human tumor cell line HT29 (colorectal carcinoma) were obtained from ATCC and maintained in Dulbecco's modified Eagle's medium containing 10% fetal calf serum at 37° C. in 5% CO2. 16-20 h before inhibitor treatment HT29 cells were starved in medium without fetal calf serum. Cells were incubated for 45 min with 30 μM kinase inhibitor (EGFR-lnhibitor, FAK-inhibitor, IGFR1-inhibitor or Met-Inhibitor) or in medium without kinase inhibitor as a positive control.
Activation of the kinases was initiated for 10-15 min with 100 ng/ml of the corresponding ligands EGF, IGF, HGF for Met kinase or fetal calf serum (FCS) for FAK kinase. […]
2.5×10^6 Luminex microspheres were coupled with 50 μg/ml antibody as described by the manufacturer (capture antibodies for EGFR, IGFR, MET and Fak were obtained from R&D-Systems and Upstate). […] After three wash steps with assay buffer, phosphorylated tyrosin-residues were detected with a biotinylated anti-phospho-tyrosin antibody (1 h agitation at room temperature; Santa Cruz Biotechnology) and phycoerythrin-conjugated Streptavidin (45 min agitation at room temperature; Dianova). Microspheres were analysed in a Luminex™ 100 machine as described by the manufacturer.

[2] = molecular target: FAK (Homo sapiens, UniProt Q05397); assay: Luminex bead sandwich assay of FAK autophosphorylation in HT29 cell lysate after FCS activation; assay type: cell-based; details: HT29 cells, 30 μM inhibitor 45 min
[3] = molecular target: IGFR1 (Homo sapiens, UniProt P08069); assay: Luminex bead sandwich assay of IGFR1 autophosphorylation in HT29 cell lysate after IGF activation; assay type: cell-based; details: HT29 cells, 30 μM inhibitor 45 min, IGF 100 ng/ml
Sequence of IGFR1 (P08069 31-1367): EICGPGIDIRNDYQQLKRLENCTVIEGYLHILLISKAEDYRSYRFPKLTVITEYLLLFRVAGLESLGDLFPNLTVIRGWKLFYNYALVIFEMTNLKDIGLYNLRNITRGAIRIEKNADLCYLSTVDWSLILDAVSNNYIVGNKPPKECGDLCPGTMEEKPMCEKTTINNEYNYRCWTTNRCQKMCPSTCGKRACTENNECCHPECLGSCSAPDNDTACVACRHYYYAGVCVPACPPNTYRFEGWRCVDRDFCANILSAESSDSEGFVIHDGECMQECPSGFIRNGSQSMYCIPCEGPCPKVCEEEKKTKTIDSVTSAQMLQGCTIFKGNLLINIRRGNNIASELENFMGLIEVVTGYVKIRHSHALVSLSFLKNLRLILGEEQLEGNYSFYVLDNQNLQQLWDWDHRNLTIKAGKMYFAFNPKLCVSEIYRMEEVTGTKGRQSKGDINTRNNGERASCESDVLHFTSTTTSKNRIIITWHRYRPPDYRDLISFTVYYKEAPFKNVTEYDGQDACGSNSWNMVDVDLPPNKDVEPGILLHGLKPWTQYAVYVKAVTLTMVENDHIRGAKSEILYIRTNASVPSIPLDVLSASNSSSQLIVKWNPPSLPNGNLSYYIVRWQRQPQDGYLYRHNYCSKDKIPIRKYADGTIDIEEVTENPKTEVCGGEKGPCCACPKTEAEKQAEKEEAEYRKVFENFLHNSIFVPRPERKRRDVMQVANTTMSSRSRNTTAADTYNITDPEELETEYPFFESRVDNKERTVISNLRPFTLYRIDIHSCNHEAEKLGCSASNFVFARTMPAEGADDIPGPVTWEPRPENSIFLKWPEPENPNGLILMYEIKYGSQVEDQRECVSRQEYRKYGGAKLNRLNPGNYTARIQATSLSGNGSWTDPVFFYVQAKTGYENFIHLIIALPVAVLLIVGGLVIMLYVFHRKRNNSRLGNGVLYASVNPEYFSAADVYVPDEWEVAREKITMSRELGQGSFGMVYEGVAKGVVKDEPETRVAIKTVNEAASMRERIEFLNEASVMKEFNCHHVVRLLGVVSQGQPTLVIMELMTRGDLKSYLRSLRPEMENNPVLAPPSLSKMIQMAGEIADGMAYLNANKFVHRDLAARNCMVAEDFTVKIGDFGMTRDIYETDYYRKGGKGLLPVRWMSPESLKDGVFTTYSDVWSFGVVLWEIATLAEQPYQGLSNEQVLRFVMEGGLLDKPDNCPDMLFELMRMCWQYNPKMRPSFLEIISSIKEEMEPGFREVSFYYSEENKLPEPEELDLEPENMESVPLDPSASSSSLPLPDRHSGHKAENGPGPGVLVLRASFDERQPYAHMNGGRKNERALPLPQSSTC

Sequence of Met (P08581 25-1390): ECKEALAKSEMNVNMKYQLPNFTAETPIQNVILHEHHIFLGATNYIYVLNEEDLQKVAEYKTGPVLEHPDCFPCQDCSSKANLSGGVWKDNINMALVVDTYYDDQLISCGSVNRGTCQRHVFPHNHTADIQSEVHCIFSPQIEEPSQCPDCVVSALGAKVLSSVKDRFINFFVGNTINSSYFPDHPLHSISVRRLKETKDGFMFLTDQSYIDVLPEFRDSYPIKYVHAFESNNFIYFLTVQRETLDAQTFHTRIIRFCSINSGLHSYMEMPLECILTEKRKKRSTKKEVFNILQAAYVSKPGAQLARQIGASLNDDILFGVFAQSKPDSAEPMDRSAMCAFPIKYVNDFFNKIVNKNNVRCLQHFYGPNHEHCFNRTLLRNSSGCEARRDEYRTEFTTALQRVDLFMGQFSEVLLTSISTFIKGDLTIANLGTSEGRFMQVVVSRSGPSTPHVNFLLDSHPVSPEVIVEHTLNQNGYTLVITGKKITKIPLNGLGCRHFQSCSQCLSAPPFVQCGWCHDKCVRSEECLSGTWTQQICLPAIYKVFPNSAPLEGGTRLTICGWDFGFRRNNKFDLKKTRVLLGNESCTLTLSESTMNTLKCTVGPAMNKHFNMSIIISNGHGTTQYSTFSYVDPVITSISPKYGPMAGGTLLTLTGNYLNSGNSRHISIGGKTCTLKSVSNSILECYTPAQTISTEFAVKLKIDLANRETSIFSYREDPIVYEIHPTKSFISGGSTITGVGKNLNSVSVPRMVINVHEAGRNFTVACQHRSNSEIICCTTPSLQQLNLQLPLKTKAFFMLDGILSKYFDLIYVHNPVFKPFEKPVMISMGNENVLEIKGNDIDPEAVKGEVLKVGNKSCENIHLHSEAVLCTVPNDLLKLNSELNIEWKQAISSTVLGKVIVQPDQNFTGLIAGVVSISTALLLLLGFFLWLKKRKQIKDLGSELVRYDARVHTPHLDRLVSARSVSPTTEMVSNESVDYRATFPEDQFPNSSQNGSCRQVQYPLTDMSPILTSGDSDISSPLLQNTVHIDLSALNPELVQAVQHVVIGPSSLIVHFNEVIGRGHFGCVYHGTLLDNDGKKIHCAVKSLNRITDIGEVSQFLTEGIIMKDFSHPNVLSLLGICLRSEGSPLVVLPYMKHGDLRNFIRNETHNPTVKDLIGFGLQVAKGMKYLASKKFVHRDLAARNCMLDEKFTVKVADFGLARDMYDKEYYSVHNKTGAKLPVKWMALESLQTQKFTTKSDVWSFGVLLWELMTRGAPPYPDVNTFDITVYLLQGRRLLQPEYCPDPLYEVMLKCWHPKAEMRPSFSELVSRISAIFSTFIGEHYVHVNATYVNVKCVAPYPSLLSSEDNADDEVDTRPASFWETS
Sequence of FAK (Q05397 whole entry): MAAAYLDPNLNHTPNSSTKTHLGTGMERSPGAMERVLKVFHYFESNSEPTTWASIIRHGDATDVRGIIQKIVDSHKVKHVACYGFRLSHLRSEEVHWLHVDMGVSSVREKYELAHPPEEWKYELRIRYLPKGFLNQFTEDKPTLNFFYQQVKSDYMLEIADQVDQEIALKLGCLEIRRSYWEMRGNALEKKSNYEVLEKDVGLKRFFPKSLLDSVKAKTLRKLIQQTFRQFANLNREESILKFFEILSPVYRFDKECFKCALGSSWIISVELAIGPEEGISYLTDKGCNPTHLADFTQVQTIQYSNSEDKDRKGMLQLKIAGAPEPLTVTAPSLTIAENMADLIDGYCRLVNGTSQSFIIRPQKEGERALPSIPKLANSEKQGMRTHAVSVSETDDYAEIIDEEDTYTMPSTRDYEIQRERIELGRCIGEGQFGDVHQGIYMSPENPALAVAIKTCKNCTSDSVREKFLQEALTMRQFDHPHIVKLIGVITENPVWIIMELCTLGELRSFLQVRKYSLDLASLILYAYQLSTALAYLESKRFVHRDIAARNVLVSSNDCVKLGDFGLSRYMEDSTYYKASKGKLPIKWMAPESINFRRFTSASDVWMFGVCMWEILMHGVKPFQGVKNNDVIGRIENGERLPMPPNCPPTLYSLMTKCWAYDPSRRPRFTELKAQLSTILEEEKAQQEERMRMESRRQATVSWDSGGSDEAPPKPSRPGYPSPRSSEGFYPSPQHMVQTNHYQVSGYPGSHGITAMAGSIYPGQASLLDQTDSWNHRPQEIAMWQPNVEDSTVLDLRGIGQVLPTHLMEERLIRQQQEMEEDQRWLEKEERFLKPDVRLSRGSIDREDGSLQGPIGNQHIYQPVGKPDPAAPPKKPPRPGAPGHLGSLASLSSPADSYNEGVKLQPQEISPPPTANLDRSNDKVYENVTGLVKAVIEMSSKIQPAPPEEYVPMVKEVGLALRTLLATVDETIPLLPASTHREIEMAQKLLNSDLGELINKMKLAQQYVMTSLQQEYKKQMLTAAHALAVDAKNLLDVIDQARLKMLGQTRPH

| Compound | Met-phosphorylation, mean fluorescence intensity (MFI) ([1]; multiple capture antibodies (EGFR, IGFR, FAK, Met) in one cavity, control without inhibitor MFI=817) | Met-phosphorylation, mean fluorescence intensity (MFI) ([1]; single capture antibody (Met) in one cavity, control without inhibitor MFI=675) | FAK-phosphorylation, mean fluorescence intensity (MFI) ([2]; multiple capture antibodies (EGFR, IGFR, FAK, Met) in one cavity, control without inhibitor MFI=1143) | FAK-phosphorylation, mean fluorescence intensity (MFI) ([2]; single capture antibody (FAK) in one cavity, control without inhibitor MFI=957) | IGFR1-phosphorylation, mean fluorescence intensity (MFI) ([3]; multiple capture antibodies (EGFR, IGFR, FAK, Met) in one cavity, control without inhibitor MFI=673) | IGFR1-phosphorylation, mean fluorescence intensity (MFI) ([3]; single capture antibody (IGFR1) in one cavity, control without inhibitor MFI=529) |
| --- | --- | --- | --- | --- | --- | --- |
| Cc1[nH]c(/C=C2\C(=O)Nc3ccc(S(=O)(=O)Cc4c(Cl)cccc4Cl)cc32)c(C)c1C(=O)N1CCC[C@@H]1CN1CCCC1 [Met-Kinase inhibitor] | 9 | 9 | – | – | – | – |
| COc1cc(Nc2nccc(Nc3cnc4ccccc4c3)n2)cc(OC)c1OC [FAK-Kinase inhibitor] | – | – | 39 | 37 | 3 | 3 |

Source: patent US7981633B2, “Method for measuring tyrosine kinase phosphorylation” (Merck Patent GmbH, priority 2005, dated 2011)
